Test results as given in patent publication US20260069601A1, “PHARMACEUTICAL COMPOSITION FOR INHALATION FOR PREVENTING OR TREATING RESPIRATORY DISEASE” (LEXENPHARM (SUZHOU) LIMITED, priority 2022, published 2026).

Assay: Stability test of indacaterol maleate-glycopyrronium bromide compositions at different pH (Example 7)
Type: physicochemical
Details: 4 weeks at 60° C.
Experimental: The soft mist solutions of indatarol indacaterol maleate and glycopyrronium bromide at different pH were prepared as follows. Six 0.02 mM citric acid solution each 500 mL were prepared. pH was adjusted to 2.5, 3.0, 3.5, 4.0, 4.5, and 5.0 with 1 M (mol/L) of sodium hydroxide solution. Indacaterol maleate and glycopyrronium bromide were added. In order to improve the dissolution of indacaterol, all the drug solutions were ultrasonicated in a water bath at 30° C. for 20 min until no visible particles were found.
The drug solutions were placed in glass bottles and stability test was performed to determine the contents of indacaterol and glycopyrronium bromide and total impurities in the samples at the initial state and after 4 weeks at 60° C.

optimal (best) pH for stability	pH at which the active ingredient is stable	Compound
3.5	–	CCc1cc2c(cc1CC)CC(NC[C@H](O)c1ccc(O)c3[nH]c(=O)ccc13)C2 [Indacaterol, indacaterol]
–	2.5-3.5	C[N+]1(C)CCC(OC(=O)C(O)(c2ccccc2)C2CCCC2)C1 (centres unmarked) [glycopyrronium bromide]
